{"source": "patent US10293004B2", "about": "“Butyrate-producing bacterium and use thereof” (KABUSHIKI KAISHA YAKULT HONSHA, priority 2014, dated 2019)", "key": {"[1]": {"experiment": "Turbidity (OD660) after anaerobic culture of bacterial strains in PYGA, PYSA or PYXA medium", "procedure": "A frozen stock solution of each bacterial strain (a 10% (w/v) skim milk-2% sodium glutamate solution in which bacterial cells were suspended) (cell count: 2.0 to 5.5×10^10 cells/mL) was thawed, and the solution was inoculated at 1% to 4 mL of a PY liquid medium supplemented with 33 mM sodium acetate and 0.5 (w/v) % glucose (PYGA medium), followed by anaerobic culture at 37° C. for 24 hours. After the culture, the culture solution was inoculated at 1% to a fresh PYGA medium, followed by anaerobic culture at 37° C. for 24 hours. After the culture, the turbidity (OD660) of the culture solution was measured. Then, the culture solution was inoculated at 1% to a PY medium containing 0.5 (w/v) % L-sorbose or D-xylitol and 33 mM sodium acetate (the medium containing L-sorbose: PYSA, and the medium containing D-xylitol: PYXA), followed by anaerobic culture at 37° C. for 24 hours. Then, the turbidity (OD660) was measured."}, "[2]": {"experiment": "Biochemical properties: saccharide fermentability (API-ZYM, Rapid ID32A API, API KENKI 20A)", "set-up": "key: +: positive reaction; −: negative reaction; +^w: weak reaction", "source_text": "(§1) Commercially available API-ZYM, Rapid ID32A API, and API KENKI 20A (SYSMEX bioMerieux Co., Ltd.) were used in the testing of biochemical properties of various bacterial strains. The testing method followed the product manuals."}, "[3]": {"experiment": "Biochemical properties: enzymatic activity (API-ZYM, Rapid ID32A API, API KENKI 20A)", "set-up": "key: +: positive reaction; −: negative reaction; +^w: weak reaction", "source_text": "as §1"}, "mouse fresh feces": {"system": "mouse fresh feces", "experiment": "Relationship between increase in cell count of YIT 12355 and butyrate concentration in mouse feces culture system", "procedure": "0.8 g of mouse fresh feces obtained 1 week after the start of the single dose test of Example 6 was collected into a sample tube and the tube was transferred into a glove box with the low-temperature and anaerobic state maintained. The feces were diluted with PBS anaerobically substituted in advance (final dilution: 12.5-fold), and a maltitol solution (final concentration: 0.5%) and/or a cultured bacterial solution of YIT 12355 (1% inoculated) was added thereto, followed by anaerobic culture at 37° C. for 24 hours. After the culture, the butyrate concentration was measured by ion-exclusion HPLC using an electric conductivity detector."}, "[4]": {"experiment": "Evaluation of ability to produce butyrate from indigestible saccharides (Example 3)", "source_text": "Galactooligosaccharide (GOS), maltitol, D-mannitol, lactitol, isomalt, isomaltulose, L-sorbose and D-sorbitol were used as indigestible saccharides. These indigestible saccharides used, except for GOS, were reagent grade. GOS used was commercially available Oligomate 55N (Yakult Pharmaceutical Industry Co., Ltd.) from which monosaccharide and lactose fractions (fractions digestible and absorbable by the upper gastrointestinal tract) had been removed using an activated carbon column. Specifically, a saccharide solution diluted with purified water was added to a column packed with activated carbon (manufactured by Wako Pure Chemical Industries, Ltd.) swollen in purified water, and the column was washed with a 2% ethanol solution, followed by the elution of an indigestible fraction with a 50% ethanol solution. The eluate was dried under reduced pressure, and the obtained GOS saccharide solution was used.\nA. hadrus YIT 10092^T (DSM 3119^T), which is a type strain of A. hadrus (a typical human intestinal butyrate-producing bacterium), and two isolates were used.\nEach of these bacterial strains was anaerobically cultured at 37° C. for 24 hours in a PYA medium containing 33 mM sodium acetate supplemented with 0.5% D-glucose (PYGA medium). The culture solution was inoculated at 1% to a PYA medium containing 0.5 (w/v) % of each indigestible saccharide (test medium), followed by anaerobic culture at 37° C. for 24 hours. After the completion of the culture, the organic acid concentration in the culture solution was analyzed by ion-exclusion HPLC. The analysis conditions were the same as those described above in Example 2. After the quantification of the organic acid concentration, the amount of butyrate produced from each indigestible saccharide and the ratio of butyrate to total short-chain fatty acids were calculated according to the following expressions. (Amount of butyrate produced)=(Amount of butyrate in the test medium after culture)−(Amount of butyrate in a PYA medium without each indigestible saccharide after culture) (Ratio of butyrate)=(Amount of butyrate in the test medium after culture)/((Amount of acetate+Amount of propionate+Amount of butyrate) in the test medium after culture)×100 (Expression 3)"}}}
{"substance": "A. hadrus (Eubacterium hadrum) YIT 12355 (NITE BP-01832)", "values": [{"measurement": "Turbidity (OD660)", "setting": "[1]; after anaerobic culture at 37° C. for 24 hours in PYGA liquid medium", "result": 3.55}, {"measurement": "Turbidity (OD660)", "setting": "[1]; anaerobic culture at 37° C. for 24 hours of 1% inoculum in PYSA (L-sorbose)", "result": 2.39}, {"measurement": "Turbidity (OD660)", "setting": "[1]; anaerobic culture at 37° C. for 24 hours of 1% inoculum in PYXA (D-xylitol)", "result": 1.47}, {"measurement": "Aesculin", "setting": "[2]", "result": "+"}, {"measurement": "D-Cellobiose", "setting": "[2]", "result": "+^w"}, {"measurement": "D-Mannitol", "setting": "[2]", "result": "+"}, {"measurement": "D-Raffinose", "setting": "[2]", "result": "−"}, {"measurement": "D-Xylose", "setting": "[2]", "result": "+"}, {"measurement": "Glycerol", "setting": "[2]", "result": "+^w"}, {"measurement": "L-Arabinose", "setting": "[2]", "result": "+"}, {"measurement": "L-Rhamnose", "setting": "[2]", "result": "+"}, {"measurement": "L-Sorbitol", "setting": "[2]", "result": "+"}, {"measurement": "Mallose", "setting": "[2]", "result": "+"}, {"measurement": "Salicin", "setting": "[2]", "result": "+"}, {"measurement": "Acid phosphatase", "setting": "[3]", "result": "+"}, {"measurement": "Alkaline phosphatase", "setting": "[3]", "result": "+"}, {"measurement": "Esterase (C4)", "setting": "[3]", "result": "+"}, {"measurement": "Naphthol-AS-B1-phosphohydrolase", "setting": "[3]", "result": "+"}, {"measurement": "α-Glucosidase", "setting": "[3]", "result": "+^w"}, {"measurement": "β-Galactosidase", "setting": "[3]", "result": "+"}, {"measurement": "β-Galactosidase-6-phosphate", "setting": "[3]", "result": "−"}, {"measurement": "cell count of A. hadrus", "setting": "mouse fresh feces", "result": "increased"}, {"measurement": "butyrate concentration", "setting": "mouse fresh feces; maltitol 0.5% and/or YIT 12355 1% inoculated, 37° C. 24 hours, FIG. 8", "result": "increased"}, {"measurement": "ability to utilize indigestible saccharides", "setting": "[4]; PYA medium with 0.5 (w/v) % of each indigestible saccharide, versus type strain, FIGS. 3 and 4", "result": "more than the type strain YIT 10092^T"}, {"measurement": "Amount of butyrate produced", "setting": "[4]; from indigestible saccharides, versus type strain, FIG. 3", "result": "larger"}, {"measurement": "ratio of butyrate to total short-chain fatty acids", "setting": "[4]; versus type strain YIT 10092^T, FIG. 4", "result": "higher than that of the type strain YIT 10092^T"}]}
